From PMC9023165, “Antioxidant, Enzyme Inhibitory, and Molecular Docking Approaches to the Antidiabetic Potentials of Bioactive Compounds from Persicaria hydropiper L” (Evidence-based Complementary and Alternative Medicine : eCAM, 2022)
Converted amounts (≈) assume the structure as drawn. Read-outs that look alike come from different tables or passages of the source.

Legend:
DPPH antiradicals assay = assay: DPPH antiradicals assay
Protocol: DPPH antiradicals study was conducted in accordance with our previously published protocol. Initially, 0.1% methanolic-DPPH solution was made and its 100 µL was mixed with same volume (100 µL) of test samples in 96-well plates, followed by incubation for about thirty min in a dark place 25 ± 3°C. […] Percent scavenging was estimated as follows:(1) % scavenging=A0−A1/A0×100.

ABTS antiradicals assay = assay: ABTS antiradicals assay
Protocol: ABTS antiradicals' study was performed following our earlier reported protocol. For preparation of ABTS solution, 192 mg of ABTS salt was mixed in distilled water with subsequent transfer to fifty-milliliter flask and volume adjustments. Thereafter, 1 mL of the previous solution was added to 17 µL of 140 mM potassium persulphate and the mixture was left in the dark for 24 hours. Subsequently, 1 mL of the reaction mixture was diluted to 50 mL using methanol to obtain the final ABTS dilution used in the assay. Consequently, 190-microliter ABTS solution was added to 10 µL sample solutions and in 96-well plates and were incubated for 2 hrs in dark place at room temperature. After the incubation, decline in color intensity of ABTS was measured at 734 nm via microplate reader. […] Percent ABTS scavenging was determined using equation:(2) %ABTS scavenging=Control absorbance−Sample absorbance/Control absorbance×100.

α-glucosidase enzyme = α-glucosidase enzyme (Saccharomyces cerevisiae, UniProt P53341); assay: α-glucosidase inhibition assay; type: biochemical
Protocol: For α-glucosidase inhibition assay, 50 µL solution containing 0.5 U·mL^−1 was added to 50 µL phosphate buffer (6.8 pH) and was added to various concentrations of test samples. The resultant mixture was properly mixed and stored at 37°C for fifteen min. After incubation, 100 µL (3 mM) pNPG solution was added to it. […] Absorption was measured at 405 nm using 96-well microplate reader. Absorption of mixture without addition of test samples was used as control and without substrate was used as blank. Percent inhibitions were calculated using the formula(3) % Inhibition=1−absorbance of sample−absorbance of blank/absorbance of control×100.

α-amylase enzyme = biological target: T1, α-amylase enzyme (Sus scrofa, UniProt P00690); assay: α-amylase inhibition assay; type: biochemical; conditions: Mean ± SEM
T1 sequence (P00690 16-511): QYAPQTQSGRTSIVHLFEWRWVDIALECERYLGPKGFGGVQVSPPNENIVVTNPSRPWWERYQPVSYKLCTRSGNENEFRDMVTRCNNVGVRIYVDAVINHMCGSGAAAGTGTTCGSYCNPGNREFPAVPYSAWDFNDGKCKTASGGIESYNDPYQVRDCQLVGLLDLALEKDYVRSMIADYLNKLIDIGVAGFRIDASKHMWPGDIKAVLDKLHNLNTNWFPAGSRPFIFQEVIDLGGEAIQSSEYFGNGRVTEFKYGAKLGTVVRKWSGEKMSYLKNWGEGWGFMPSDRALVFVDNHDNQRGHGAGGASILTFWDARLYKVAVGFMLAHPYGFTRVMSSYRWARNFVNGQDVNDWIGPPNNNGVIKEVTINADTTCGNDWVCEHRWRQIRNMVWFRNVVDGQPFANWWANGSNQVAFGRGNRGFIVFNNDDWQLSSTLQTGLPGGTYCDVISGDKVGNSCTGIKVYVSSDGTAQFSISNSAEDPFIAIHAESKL
Protocol: Using this assay, a previously reported protocol was followed. […] Subsequently, 100 µL of 0.5 mg·mL^−1α-amylase solution was added to the mixture and again incubated for 10 min at 25°C. Reaction was stopped via the addition of 200 µL of dinitrosalicylic acid was added and incubated for an additional 5 min in boiling water bath and allowed to cool again. Finally, 50 µL solutions was transferred to 96-well microplate reader and further diluted to 200 µL via the addition of distilled water. Absorbencies were recorded at 540 nm and percent inhibitions were calculated using the equation(4) % Inhibition=1−Δ A Samples/Δ A Control×100.

Chain of α-glucosidase enzyme (P53341 whole entry): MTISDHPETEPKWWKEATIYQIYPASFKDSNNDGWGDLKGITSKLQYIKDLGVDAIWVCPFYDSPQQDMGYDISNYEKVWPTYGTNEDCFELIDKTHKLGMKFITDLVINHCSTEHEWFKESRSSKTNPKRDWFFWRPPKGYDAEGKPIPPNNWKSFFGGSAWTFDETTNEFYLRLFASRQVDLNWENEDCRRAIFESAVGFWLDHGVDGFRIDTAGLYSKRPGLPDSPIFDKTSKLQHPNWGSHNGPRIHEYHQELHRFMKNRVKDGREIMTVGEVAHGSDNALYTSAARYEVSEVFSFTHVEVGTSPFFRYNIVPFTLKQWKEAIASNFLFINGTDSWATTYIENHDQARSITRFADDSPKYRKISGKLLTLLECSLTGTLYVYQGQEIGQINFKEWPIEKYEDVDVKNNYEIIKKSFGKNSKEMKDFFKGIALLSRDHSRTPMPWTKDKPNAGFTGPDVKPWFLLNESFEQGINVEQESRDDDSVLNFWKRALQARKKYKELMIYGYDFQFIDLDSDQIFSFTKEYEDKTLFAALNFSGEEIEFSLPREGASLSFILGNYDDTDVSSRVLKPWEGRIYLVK

Structure (SMILES)	IC50 DPPH scavenging (DPPH antiradicals assay)	% scavenging effect against DPPH radicals (DPPH antiradicals assay; 31.25 µg·mL^−1)	% scavenging effect against DPPH radicals (DPPH antiradicals assay; 62.50 µg·mL^−1)	% scavenging effect against DPPH radicals (DPPH antiradicals assay; 125 µg·mL^−1)	% scavenging effect against DPPH radicals (DPPH antiradicals assay; 250 µg·mL^−1)	% scavenging effect against DPPH radicals (DPPH antiradicals assay; 500 µg·mL^−1)	% scavenging effect against DPPH radicals (DPPH antiradicals assay; 1000 µg·mL^−1)	IC50 against ABTS radicals (ABTS antiradicals assay)	% inhibition against ABTS radicals (ABTS antiradicals assay; 1000 µg·mL^−1)	further results
CC(=O)OC1COC(=O)C1C (stereo not drawn) [Ph-3, 4-methyl-5-oxo-tetrahydrofuran-3-yl acetate]	550 µg/mL	9.2%	18.5%	29.66%	33.33%	42%	56%	320 µg/mL	67.16%	
COC(=O)c1ccc(O)c(OC)c1 [Ph-4, methyl 4-hydroxy-3-methoxybenzoate]	650 µg/mL (≈ 3570 µM)	7.6%	12.06%	19.85%	27.48%	48.73%	60.26%	610 µg/mL (≈ 3350 µM)	53.66%	
CCOc1cc(C(C)=O)c2cc(OC)ccc2c1 [Ph-5, 1-(3-ethoxy-7-methoxynaphthalen-1-yl)ethanone]	390 µg/mL (≈ 1600 µM)						58.33%	350 µg/mL (≈ 1430 µM)	69.16%	IC50 against ABTS radicals (ABTS antiradicals assay; in Figure 3): 390 µg/mL (≈ 1600 µM)
CCC(/C=C/C(C)C1CCC2C3CC=C4CC(O)CCC4(C)C3CCC12C)C(C)C (stereo not drawn) [Ph-2, (E)-17-(5-ethyl-6-methylhept-3-en-2-yl)-10,13-dimethyl-2,3,4,7,8,9,10,11,12,13,14,15,16,17-tetradecahydro-1H-cyclopenta[a]phenanthren-3-ol]	200 µg/mL (≈ 485 µM)	11.83%	21.33%	34.16%	59.66%	68%	79.33%	160 µg/mL (≈ 388 µM)	80.63%	% inhibition against ABTS radicals (ABTS antiradicals assay; 31.25 µg·mL^−1): 17.44%; % inhibition against ABTS radicals (ABTS antiradicals assay; 62.5 µg·mL^−1): 27.88%; % inhibition against ABTS radicals (ABTS antiradicals assay; 125 µg·mL^−1): 42.89%; % inhibition against ABTS radicals (ABTS antiradicals assay; 250 µg·mL^−1): 60.56%; % inhibition against ABTS radicals (ABTS antiradicals assay; 500 µg·mL^−1): 72.68%
O=C1O[C@H]([C@@H](O)CO)C(O)=C1O [ascorbic acid, reference compound]	40 µg/mL (≈ 227 µM)	45%	56.83%	62.33%	72.85%	83.33%	91.80%			
C[C@H]1O[C@H](O[C@H]2[C@H](O)[C@@H](O)[C@@H](O[C@H]3[C@H](O)[C@@H](O)C(O)O[C@@H]3CO)O[C@@H]2CO)[C@H](O)[C@@H](O)[C@@H]1N[C@H]1C=C(CO)[C@@H](O)[C@H](O)[C@H]1O (stereo partly drawn) [Acarbose]										α-Glucosidase inhibition assay % enzyme inhibition (α-glucosidase enzyme): 89.42 ± 0.55 77.52 ± 0.62 71. 36 ± 0.49 62.39 ± 0.49 55.47 ± 0.52%; α-Amylase Inhibition assay % enzyme inhibition (α-amylase enzyme; 62.50 µg·mL^−1): 59.36 ± 0.57%; α-Amylase Inhibition assay % enzyme inhibition (α-amylase enzyme; 125 µg·mL^−1): 65.48 ± 0.74%; α-Amylase Inhibition assay % enzyme inhibition (α-amylase enzyme; 250 µg·mL^−1): 73.62 ± 0.40%; α-Amylase Inhibition assay % enzyme inhibition (α-amylase enzyme; 500 µg·mL^−1): 78.60 ± 0.46%; α-Amylase Inhibition assay % enzyme inhibition (α-amylase enzyme; 1000 µg·mL^−1): 85.72 ± 0.66%
COc1cc(/C=C/c2ccccc2)oc(=O)c1 [Ph-6, (E)-4-methoxy-6-styryl-2H-pyran-2-one]	910 µg/mL (≈ 3990 µM)						44%	550 µg/mL (≈ 2410 µM)	61%	
